Laboratory results taken from EP1369114A1, “Use of tryptophan metabolites as pharmaceutical agents” (Terness, Peter, Priv. Doz. Dr., priority 2002, dated 2003).
pIC50: −log10 of the molar value.

What was measured:
Format in all cases: cell-based, human
CD3-stimulated T cells = experiment: CD3 stimulation of T cells: metabolite titration curves, 3[H]-thymidin incorporation; details: anti-CD3 antibody, 3 days; for pIC50: Homo sapiens, T-cell, 72 h, single substance, read-out: I50 of proliferation of CD3-stimulated T cells
Description: • (a) Allogeneic T-cell response. DCs were infected with recombinant IDO-adeno-GFP (DC-IDO-GFP), IDO-adeno (DC-IDO) or with control adenoviruses (DC-adeno) at a MOI (multiplicity of infection) up to 500 for 2 days. Lymphocytes (PBMCs) were separated from peripheral blood of healthy donors by density gradient centrifugation and typed for HLA antigens. Only HLA-DR-different responder lymphocytes were used for DC-induced stimulation. Native DCs only, lymphocytes only, native DCs + allogeneic lymphocytes, DC-IDO-GFP + allogeneic lymphoytes, DC-IDO + allogeneic lymphoytes, DC-adeno + allogeneic lymphocytes (each time 10^5 DC + 10^5 lymphocytes in 0.2ml medium) were cultured in RPMI 1640 medium (Gibco BRL Life Technologies GmbH, Eggenstein, Germany) with 10% fetal calf serum (FCS) (final tryptophan concentration 5.25 mg/l = 25.69 uM) and Penicillin G/Streptomycin. […] In order to verify whether IDO expression or adenovirus infection harm the DCs, 10^5 cells were infected with IDO-adeno-GFP, IDO-adenovirus, or adenovirus only at a stepwise decreasing MOI (500, 250, 125, ........ 3.9) and cell viability was measured in FACS following double staining with 7-AAD and anti-CD83 antibody-PE. The percentage of dead cells never exceeded 30% for any MOI following IDO-adeno-GFP- or IDO-adeno-infection and 40% following adenovirus(control)-infection. Moreover, these values were not higher than those of native DCs cultured for the same period of time. The experiment was repeated using ethidium bromide or trypan blue staining with virtually the same result. […] Peripheral blood lymphocytes were cultured (10^5 cells/well) in RPMI 1640 (10% FCS) with anti CD3 monoclonal antibody (Ortho Diagnostic Systems Inc., Raritan, NJ) (final dilution 1:200). […] Kynurenine, 3-hydroxykynurenine, anthranilic acid, 3-hydroxyanthranilic acid, and quinolinic acid (Sigma-Aldrich Chemie GmbH, Taufkirchen, Germany)(for all substances purity>98%) were dissolved in RPMI 1640 and added to cell cultures at various concentrations. In an other experiment, to determine whether the metabolites have an additive effect, equal concentrations of the compounds were mixed and added to the cultures. […] Positive controls consisted of CD3-stimulated cells without metabolites and negative controls of unstimulated cells. • (d) Restimulation of suppressed T cells. Lymphocytes (10^5 cells/well) were cultured in RPMI 1640 (10% FCS) with anti-CD3 monoclonal antibody (final dilution 1:200) and kynurenine (dilution series). […] Controls consisted of cells prestimulated with anti-CD3 but not pretreated with kynurenine. In an other restimulation experiment lymphocytes were stimulated with allogeneic DCs as described, in the presence (47-1500µM) or absence of kynurenine. Control cultures contained DCs or lymphocytes only. After 5 days the cells were extensively washed, and restimulated with an identical number of DCs derived from the same donor or from third party donors. […] In order to define the concentration of tryptophan which reduces T- lymphocyte proliferation in our test system, 10^5 lymphocytes were incubated in tryptophan-free RPMI 1640 medium (Gibco BRL Life Technologies) with or without 10% FCS, stimulated with anti-CD3 monoclonal antibody, and various amounts (0-38µM) of tryptophan were added. Unimpaired proliferation was observed down to 0.30µM (medium with FCS) and 1 .20µM (without FCS). Complete inhibition was not obtained at any concentration (positive control 100% proliferation; maximal suppression in medium with FCS: approx. 66% and without FCS: approx. 33%). All cell cultures were done in triplicate.
All tests were carried out in triplicate and results are given as mean +standard deviation. […] Thereafter, the concentration of substance giving 50% proliferation was calculated by regression.

T cells = experiment: Detection of cell death: 7-AAD staining of anti-CD3 stimulated lymphocytes, FACScan; details: anti-CD3, 3 days; 1501 µM kynurenine, 349µM 3-hydroxykynurenine, 510µM 3-hydroxyanthranilic acid, mixture 64 µM of each compound
Protocol: Lymphocytes were stimulated in culture with anti-CD3 monoclonal antibody (s. above) in the presence or absence (control) of kynurenine (1501µM), 3-hydroxyanthranilic acid (510µM), 3-hydroxykynurenine (348µM), or metabolite mixture (64µM kynurenine + 64µM 3-hydroxykynurenine + 64µM anthranilic acid + 64µM 3-hydroxyanthranilic acid + […] quinolinic acid). After 3 days the cells were washed and resuspended in PBS (10^6/ml). Thereafter, the cells (100µ1 suspension) were labeled with anti-CD3-FITC antibody (3 µl), stained with 7-AAD (5µl) for 15 min, and the percentage of 7-AAD-positive (dead) T cells was determined in a FACScan. In an other experiment T cells, B cells, NK-cells, or DCs were separated from PBMCs by magnetic beads or generated as described, and cultured (5x10^5 cells/ml) with a mixture of kynurenine metabolites (kynurenine + 3-hydroxykynurenine + anthranilic acid + 3-hydroxyanthranilic acid + quinolinic acid)(8, 16, or 32µM respectively for each compound). In one setting T cells were activated with anti-CD3 antibody. Cell death was measured daily for 5 days by 7-AAD staining and expressed in percentage of dead cells.

[1] = system: T cells stimulated by allogeneic DCs; experiment: Allogeneic T-cell response: lymphocyte proliferation induced by allogeneic dendritic cells, 3[H]-thymidin incorporation; details: 6 days
Description: DCs were generated from CD14-positive blood monocytes as previously described ("Schuler G. and N. Romani", 1997, Adv. Exp. Med. Biol. 417:7-13). Briefly, peripheral blood mononuclear cells of an HLA-typed healthy donor were separated by density gradient centrifugation and CD14-positive monocytes were isolated by adherence to culture dishes. Non-adherent cells were discarded. After culture of monocytes in the presence of human rGM-CSF (666 Units/ml) and rIL-4 (1000 Units/ml) for 7 days, rTNF-α (10 ng/ml) was added for an additional 2 days to induce maturation of DC. Characterization of DC phenotype was performed by flow cytometry using the following mouse monoclonal antibodies: anti-CD 14-FITC, anti-HLA-DR-FITC, anti-CD 1a-PE, anti-CD86-PE, and anti-CD83-PE (BD Biosciences Heidelberg, Germany). DCs were kept in liquid nitrogen until use.
• (a) Allogeneic T-cell response. DCs were infected with recombinant IDO-adeno-GFP (DC-IDO-GFP), IDO-adeno (DC-IDO) or with control adenoviruses (DC-adeno) at a MOI (multiplicity of infection) up to 500 for 2 days. […] After 5 days, ^3[H]-thymidin was added for 12hrs and the number of counts (counts per minute = cpm) determined in a (3-counter (Inotech Biosystems, Lansing, MI). In order to verify whether IDO expression or adenovirus infection harm the DCs, 10^5 cells were infected with IDO-adeno-GFP, IDO-adenovirus, or adenovirus only at a stepwise decreasing MOI (500, 250, 125, ........ 3.9) and cell viability was measured in FACS following double staining with 7-AAD and anti-CD83 antibody-PE. The percentage of dead cells never exceeded 30% for any MOI following IDO-adeno-GFP- or IDO-adeno-infection and 40% following adenovirus(control)-infection. […] After 2 days, cell proliferation was assessed by measuring ^3[H]-thymidin incorporation (cpm) as described. • (c) Tryptophan metabolite titration curves. […] After 2 days, ^3[H] thymidin was added and the number of counts recorded. […] After another 2 days, ^3[H] thymidin was added and cpm determined. […]

[2] = system: T- lymphocyte proliferation; experiment: Tryptophan titration curve: proliferation of anti-CD3 stimulated lymphocytes in tryptophan-free medium; details: for maximal suppression: positive control 100% proliferation
Description: • (a) Allogeneic T-cell response. DCs were infected with recombinant IDO-adeno-GFP (DC-IDO-GFP), IDO-adeno (DC-IDO) or with control adenoviruses (DC-adeno) at a MOI (multiplicity of infection) up to 500 for 2 days. Lymphocytes (PBMCs) were separated from peripheral blood of healthy donors by density gradient centrifugation and typed for HLA antigens. Only HLA-DR-different responder lymphocytes were used for DC-induced stimulation. Native DCs only, lymphocytes only, native DCs + allogeneic lymphocytes, DC-IDO-GFP + allogeneic lymphoytes, DC-IDO + allogeneic lymphoytes, DC-adeno + allogeneic lymphocytes (each time 10^5 DC + 10^5 lymphocytes in 0.2ml medium) were cultured in RPMI 1640 medium (Gibco BRL Life Technologies GmbH, Eggenstein, Germany) with 10% fetal calf serum (FCS) (final tryptophan concentration 5.25 mg/l = 25.69 uM) and Penicillin G/Streptomycin. After 5 days, ^3[H]-thymidin was added for 12hrs and the number of counts (counts per minute = cpm) determined in a (3-counter (Inotech Biosystems, Lansing, MI). In order to verify whether IDO expression or adenovirus infection harm the DCs, 10^5 cells were infected with IDO-adeno-GFP, IDO-adenovirus, or adenovirus only at a stepwise decreasing MOI (500, 250, 125, ........ 3.9) and cell viability was measured in FACS following double staining with 7-AAD and anti-CD83 antibody-PE. The percentage of dead cells never exceeded 30% for any MOI following IDO-adeno-GFP- or IDO-adeno-infection and 40% following adenovirus(control)-infection. Moreover, these values were not higher than those of native DCs cultured for the same period of time. […] After 2 days, cell proliferation was assessed by measuring ^3[H]-thymidin incorporation (cpm) as described. • (c) Tryptophan metabolite titration curves. […] After 2 days, ^3[H] thymidin was added and the number of counts recorded. […] After another 2 days, ^3[H] thymidin was added and cpm determined. […] 3[H] thymidin was added to all cultures and the number of counts (cpm) determined. • (e) Tryptophan titration curve. […]

## Nc1c(O)cccc1C(=O)O [3-hydroxyanthranilic acid]
CD3-stimulated T cells
  pIC50: 4.02
  suppression of T cell response (in words): strongly suppress T cells
T cells
  dead (7-AAD-positive) T cells (in words): virtually all cells died

## Nc1c(O)cccc1C(=O)CC(N)C(=O)O (centres unmarked) [3-hydroxykynurenine]
CD3-stimulated T cells
  pIC50: 3.73
  suppression of T cell response (in words): strongly suppress T cells
T cells
  dead (7-AAD-positive) T cells (in words): virtually all cells died

## Nc1ccccc1C(=O)C[C@@H](N)C(=O)O [D-kynurenine]
[1]
  inhibition of proliferation of T cells stimulated by allogeneic DCs (in words): The same effect was noted
CD3-stimulated T cells
  suppression of T cell response (in words): The same effect was noted

## NC(CC(=O)c1ccccc1NC=O)C(=O)O (centres unmarked) [N-formylkynurenine]
CD3-stimulated T cells
  suppression of T cell response (in words): Suppression of T-cell response can also be achieved

## Nc1ccccc1C(=O)O [anthranilic acid]
CD3-stimulated T cells
  suppression of T cell response (in words): suppressive but at higher concentrations

## O=C(O)c1cccnc1C(=O)O [quinolinic acid]
CD3-stimulated T cells
  suppression of T cell response (in words): suppressive but at higher concentrations

## N[C@@H](Cc1c[nH]c2ccccc12)C(=O)O [tryptophan]
[2]; medium with FCS
  lowest tryptophan concentration with unimpaired proliferation: 0.30 µM
  maximal suppression: approx. 66%
[2]; medium without FCS
  maximal suppression: approx. 33%
